From ChEMBL document CHEMBL5729785, “Pyridazinones as PARP7 inhibtors” (2023)

Target: T1, Protein mono-ADP-ribosyltransferase TIPARP (Homo sapiens, UniProt Q7Z3E1)
T1 sequence (Q7Z3E1 whole entry): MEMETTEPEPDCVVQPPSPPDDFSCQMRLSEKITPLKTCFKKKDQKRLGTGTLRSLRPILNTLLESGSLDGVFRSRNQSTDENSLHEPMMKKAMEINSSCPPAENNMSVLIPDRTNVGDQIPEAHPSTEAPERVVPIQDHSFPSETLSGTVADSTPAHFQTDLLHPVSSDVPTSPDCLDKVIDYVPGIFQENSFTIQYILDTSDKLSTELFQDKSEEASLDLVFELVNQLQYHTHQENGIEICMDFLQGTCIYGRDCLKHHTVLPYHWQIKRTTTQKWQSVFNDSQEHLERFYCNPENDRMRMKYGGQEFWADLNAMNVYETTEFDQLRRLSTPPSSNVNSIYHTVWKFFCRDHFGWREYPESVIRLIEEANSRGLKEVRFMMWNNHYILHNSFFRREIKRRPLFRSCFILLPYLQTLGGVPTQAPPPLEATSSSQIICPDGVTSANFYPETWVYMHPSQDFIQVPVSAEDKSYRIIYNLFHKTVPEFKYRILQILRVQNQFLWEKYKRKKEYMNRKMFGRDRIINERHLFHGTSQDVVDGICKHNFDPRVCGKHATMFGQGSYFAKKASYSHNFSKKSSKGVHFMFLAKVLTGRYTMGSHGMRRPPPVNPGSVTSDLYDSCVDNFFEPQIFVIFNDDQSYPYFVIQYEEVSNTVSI
Experiment: Enzymatic Assay: Displacement of Probe A, a biotinylated probe binding to the TIPARP active site, was measured using a time-resolved fluorescence energy transfer (TR-FRET) assay. 20 nL of a dose response curve of each test compound was spotted in black 384-well polystyrene proxiplates (Perkin Elmer) using a Mosquito (TTP Labtech). Reactions were performed in a 8 μl volume by adding 6 μL of TIPARP and Probe A in assay buffer (20 mM HEPES pH=8, 100 mM NaCl, 0.1% bovine serum albumin, 2 mM DTT and 0.002% Tween20), incubating with test compound at 25° C. for 30 min, then adding 2 μL of ULight-anti 6×His and LANCE Eu-W1024 labeled streptavidin (Perkin Elmer). The final concentrations of TIPARP and Probe A were 6 nM and 2 nM, respectively. The final concentration of ULight-anti 6×His and LANCE Eu-W1024 labeled streptavidin were 4 nM and 0.25 nM, respectively. Reactions were incubated at 25° C. for an additional 30 min, then read on an Envision platereader equipped with a LANCE/DELFIA top mirror (Perkin Elmer) using excitation of 320 nm and emission of 615 nm and 665 nM with a […]. The ratio of the 665/615 nm emission were calculated for each well to determine the amount of complex of TIPARP and Probe Ain each well. […]

- IC50: < 100 nM
SMILES: C[C@@H](CO[C@@H]1CCN(C2CCN(c3ncc(Br)cn3)CC2)C1=O)Nc1cn[nH]c(=O)c1C(F)(F)F
